Measured values taken from US20030153551A1, “Method for treating ocular neovascular diseases” (priority 2002, published 2003).

Key:
[1] = tested on: retinal vascular development; experiment: Retinal vascular development in neonatal mice, fluorescein-dextran perfused retinal flat mounts; assay type: in vivo, newborn C57/BL6J mice; details: daily subcutaneous 100 mg/kg
Description: Litters of newborn C57/BL6J mice (neonatal mice) are divided into treatment and control groups which received daily subcutaneous injections of 100 mg/kg of the drug or vehicle, respectively. At 7 or 10 days of age, the mice are anesthetized with ether, and perfused with 1 ml of phosphate-buffered saline containing 50 mg/ml of fluorescein-labeled dextran (2×10^6 average mw, Sigma, St. Louis, Mo.) as described by Tobe et al., Evolution of Neovascularization in Mice with Overexpression of VEGF in Photoreceptors, Invest. Ophthalmol. Vis. Sci. 39, 180-188 (1998). The eyes are removed and fixed for 1 hour in 10% phosphate-buffered formalin. The cornea and lens are removed and the entire retina is carefully dissected from the eyecup. Radially cuts are made from the edge of the retina to the equator in all 4 quadrants, and the retina is flat-mounted in Aquamount with photoreceptors facing upward. […] Image-Pro™ Plus is used to measure the distance from the center of the optic nerve to the leading front of developing retinal vessels in each quadrant and the mean is used as a single experimental value.

[2] = tested on: retinal neovascularization; experiment: Oxygen-induced ischemic retinopathy in mice, lectin staining of retinal endothelial cells with image analysis; assay type: in vivo, C57/BL6J mice
Description: Ophthalmol. Vis. […] Vehicle (1% DMSO) or vehicle containing various concentrations of the drug (volume=10 μl per gram body weight) is placed in the stomach by gavage.
Some slides are counterstained with hematoxyln and all were mounted with Cytoseal.

[3] = tested on: choroidal neovascularization; experiment: Laser-induced choroidal neovascularization in mice, lectin staining with integrated area measurement; assay type: in vivo, C57BL/6J mice; details: 400 mg/kg/day orally by gavage
Description: C57BL/6J mice are treated in accordance with the Association for Research in Vision and Ophthalmology resolution for the treatment of animals. […] J Path, in press. Briefly, 4 to 5 week old male C57BL/6J mice are anesthetized with ketamine hydrochloride (100 mg/kg body weight) and the pupils are dilated with 1% tropicamide. Three burns of krypton laser photocoagulation (100 μm spot size, 0.1 seconds duration, 150 mW) are delivered to each retina using the slit lamp delivery system of a Coherent Model 920 Photocoagulator and a hand held cover slide as a contact lens. Burns are performed in the 9, 12, and 3 o'clock positions of the posterior pole of the retina. Production of a bubble at the time of laser, which indicates rupture of Bruch's membrane, is an important factor in obtaining CNV, so only mice in which a bubble is produced for all three burns are included. […] After 14 days, the mice are killed with an overdose of pentobarbital sodium, and their eyes are rapidly removed and frozen in optimal cutting temperature embedding compound (OCT). […] Slides are rinsed with 0.05M TBS and incubated 2 hours at 37° C. with biotinylated lectin. […] After a 10 minute incubation in 0.05 M Tris buffer, pH 7.6, slides are developed in Histomark Red (Kirkegaard and Perry) to give a red reaction product, and mounted with Cytoseal (Stephens Scientific, Riverdale, N.J.). Some slides are counterstained with Contrast Blue (Kirkegaard and Perry).
For each lesion, area measurements are made for all sections on which some of the lesion appeared and added together to give the integrated area measurement. Values are averaged to give one experimental value per mouse. A 2-sample t-test for unequal variances is performed to compare the log mean integrated area between treatment and control mice.

[4] = tested on: endothelial cells of mature vessels; experiment: Effect on mature retinal vessels of adult mice, lectin staining with image analysis; assay type: in vivo, Adult C57BL6J mice; details: 600 mg/kg by gavage once a day, 5 days
Description: After 5 days of treatment, the mice are sacrificed, eyes are rapidly removed and frozen in optimum cutting temperature embedding compound (OCT; Miles Diagnostics, Elkhart, Ind.) or fixed in 10% phosphate-buffered formalin and embedded in paraffin. Adult C57BL6J mice are also treated by gavage with the drug or vehicle and after 5 days, they are sacrificed and their eyes are processed for frozen or paraffin sections.

CO[C@@H]1[C@H](N(C)C(=O)c2ccccc2)C[C@H]2O[C@]1(C)n1c3ccccc3c3c4c(c5c6ccccc6n2c5c31)C(=O)NC4 [NBS, N-benzoyl-staurosporine]
difference in distance from the optic nerve to the vascular front between treated and control mice ([1]; at 7 and 10 days of age): statistically significant | extent of retinal vessels toward the periphery ([1]; at 7 days of age): only extend slightly more than halfway to the periphery | extent of superficial capillary bed ([1]; at 10 days of age): has not yet reached the edge of the retina | endothelial cell staining on and in the retinas by image analysis versus vehicle-treated mice ([2]; 60 mg/kg once a day): significantly less | clumps of neovascularization on the surface of the retina versus vehicle-treated control mice ([2]; 60 mg/kg twice a day, gavage): less than clumps in the retina of the vehicle-treated control mice | clumps of neovascularization on the surface of the retina versus vehicle-treated control mice ([2]; 300 mg/kg twice a day, gavage): less than clumps in the retina of the vehicle-treated control mice | endothelial cell staining on and in the retinas by image analysis versus vehicle-treated mice ([2]; 600 mg/kg once a day): significantly less | endothelial cell staining on the surface and within the retina compared to vehicle-treated mice ([2]; 600 mg/kg once a day for 5 days, gavage): dramatic decrease | integrated area of lectin staining per lesion ([3]; 14 days after laser, vehicle 0.0695621±0.0073960 mm^2, p=0.004): 0.009018±0.001754 mm^2 | appearance of overlying retinal vessels in eyes of treated mice ([3]; two weeks after laser): appear normal | choroidal neovascularization at the site of each laser-induced rupture of Bruch's membrane ([3]; two weeks after laser): very little if any choroidal neovascularization | total area of endothelial staining in the retina or appearance of retinal vessels compared to vehicle-treated mice [4]: no difference | toxicity to endothelial cells of mature vessels [4]: not toxic
